From publication PMC5613011, “Fenugreek Compound (N55) Lowers Plasma Glucose through the Enhancement of Response of Physiological Glucagon-like peptide-1” (Scientific Reports, 2017)

What was measured:
GLP-1R [1] = conditions: cited from earlier work
Source text: Firstly, the hypoglycemic effect of N55 during IPGTT of non-fasted mice requires functional GLP-1R signaling. Secondly, although N55 could not affect the plasma glucose in fasted mice whose endogenous GLP-1 are relatively low (Fig. 2a). […] Thirdly, the hypoglycemic effect and potentiation of insulinotropic effect of GLP-1 required the functional s ... || (+ 1 further places)

fasted mice = assay: IPGTT, fasted mice (plasma glucose, glucose AUC0–120); assay type: in vivo, Female C57BL/6 mice
Source text: All animal procedures were approved by the Institute of Biomedical Sciences Animal Care and Use Committee (Academia Sinica, Taiwan). The Experimental Animal Committee, Academia Sinica, Taiwan approved all animal experimental procedures. All animals were carefully looked after to ensure that their welfare were well looked after. Additionally, all the experimental procedures and the reagents used in this manuscript have been approved by The Ethic Committee, Academia Sinica. All methods were performed in accordance with the relevant guidelines and regulations by the Institute of Biomedical Sciences Animal Care and Use Committee (Academia Sinica, Taiwan) and The Ethic Committee (Academia Sinica, Taiwan). Female C57BL/6 mice (BioLAS CO, Yi-Lan Breeding Center, Taiwan) aged 8–12 weeks were housed on a 12-h light/12-h dark cycle and provided with food and water ad libitum. The mice were fed with the standard chow (PicoLab Rodent Diet 5053, LabDiet, St. Louis, MO, USA) diet which consisted of 13.2% fat, 24.7% protein, and 62.1% carbohydrates as a source of calories.
All experiments were performed at approximately 1 PM. For the fasted mice, standard chow was removed away at 9 AM on the day of the IPGTT, but were provided water ad libitum for 4 h prior to the beginning of the test. All the administered materials were dissolved in isotonic sodium chloride solution (0.9% sodium chloride) containing 5% ethanol. Vehicle, N55, GLP-1′, [Aib8, E22, E30]-GLP-1(7–36) amide, Ex-4 or Ex-9 alone or in combination were administered by i.p. injection 15 min before D-(+)-glucose (2 g/kg of body weight) i.p. administration. Blood samples were drawn from the tail vein right before glucose loading (time 0) and at 15, 30, 60, 90 and 120 min after glucose administration. Plasma glucose was monitored using a glucometer (Accu-Check Performa, Roche, Basel, Switzerland). Glucose AUC0–120 was calculated during the 120-min time interval from IPGTT results. Glucose AUC0–120 was obtained using the formula AUC0–120 = [15 × (G0 + G15)/2] + [15 × (G15 + G30)/2] + [30 × (G30 + G60)/2] + [30 × (G60 + G90)/2] + [30 × (G90 + G120)/2] where G0, G15, G30, G60, G90 and G120 were blood glucose level at each time point during IPGTT. The decrease in plasma glucose was calculated by subtracting the plasma glucose in the presence of indicated reagent from that in the absence of indicated reagent; ∆ Plasma Glucose (mmol/l) = [plasma glucose at 15 min point obtained in the absence of indicated reagent] − [plasma glucose at 15 min point obtained in the presence of indicated reagent]. The decreased in glucose AUC0–120 was expressed by subtracting the AUC0–120 in the presence of f indicated reagent rom that in the absence of indicated reagent. ∆ AUC0–120 (mmol/l x min) = [AUC0–120 in the absence of indicated reagent] − [AUC0–120 in the presence of indicated reagent].
(§1) Values for each experimental group are presented as mean ± SEM. Statistics were performed using Student’s t-test and one-way analysis of variance (ANOVA). Significance levels shown in the figures are: * P < 0.05, ** P < 0.01 and *** P < 0.001 as well as ^# P < 0.05, ^## P < 0.01 and ^### P < 0.001. A P-value of less than 0.05 was considered significant. Student’s t-test that is used to compare the means of two groups and one-way ANOVA is used to compare the means of more than two groups. Five mice per group were used for the in vivo studies. The in vivo studies were performed at least twice. The in vitro assays were triplicates of three independent experiments.

mice = assay: Plasma insulin during IPGTT; assay type: in vivo, Female C57BL/6 mice
Source text: (§2) All animal procedures were approved by the Institute of Biomedical Sciences Animal Care and Use Committee (Academia Sinica, Taiwan). The Experimental Animal Committee, Academia Sinica, Taiwan approved all animal experimental procedures. All animals were carefully looked after to ensure that their welfare were well looked after. Additionally, all the experimental procedures and the reagents used in this manuscript have been approved by The Ethic Committee, Academia Sinica. […]
(§3) All experiments were performed at approximately 1 PM. […] Plasma glucose was monitored using a glucometer (Accu-Check Performa, Roche, Basel, Switzerland). Glucose AUC0–120 was calculated during the 120-min time interval from IPGTT results. […] The decrease in plasma glucose was calculated by subtracting the plasma glucose in the presence of indicated reagent from that in the absence of indicated reagent; ∆ Plasma Glucose (mmol/l) = [plasma glucose at 15 min point obtained in the absence of indicated reagent] − [plasma glucose at 15 min point obtained in the presence of indicated reagent]. […]
Blood samples were collected from the tail vein before any drug administration and at 15 and 60 min after i.p. glucose loading (time 0). […] Plasma insulin levels were determined by a mouse insulin enzyme-linked immunosorbent assay kit (10–1247–01, Mercodia, Sweden) according to the manufacturer’s protocols. […]

GLP-1R [2] = assay: BRET / real-time intracellular cAMP response assay, GLP-1R; assay type: cell-based
Source text: Figure 7 Hypoglycemic action of [Aib8, E22, E30]-GLP-1(7–36) amide was not affected by N55. (a) Sequence alignment of GLP-1(7–36) amide, Ex-4 and mutant peptide. G22 and A30 (purple alphabets) are non-homologous residues between GLP-1(7–36) amide and Ex-4. These residues in GLP-1(7–36) amide were replaced with E (red alphabets), the corresponding residues (blue alphabets) in Ex-4, to generate DPP4-resistant GLP-1 mutant peptide ([Aib8, E22, E30]-GLP-1(7–36) amide). Effect of N55 on cAMP responses to the titration of (b) [Aib8, E22, E30]-GLP-1(7–36) amide and GLP-1′. Values are means ± SEM of triplicate assays from three independent experiments. Dose effect of [Aib8, E22, E30]-GLP-1(7–36) amide on (c) plasma glucose levels and on (d) glucose AUC0–120. Dose effect of N55 on (e) the hypoglycemic response and on (f) glucose AUC0–120 of 16.2 nmol/kg of [Aib8, E22, E30]-GLP-1(7–36) amide. Indicated doses of [Aib8, E22, E30]-GLP-1(7–36) amide and N55 were i.p. administered to group of fasted mice (n = 5) 15 min before the glucose loading (2 g/kg) of the IPGTT. Values are mean ± SEM for groups of five mice. * P < 0.05, ** P < 0.01 and *** P < 0.001 were comparisons of indicated dose of [Aib8, E22, E30]-GLP-1(7–36) amide vs control (c,d). NS, not significant.
The real-time intracellular cAMP assay was performed as previously described.
as §1

non-fasted mice = assay: IPGTT, non-fasted mice (plasma glucose, glucose AUC0–120); assay type: in vivo, Female C57BL/6 mice; conditions: Ex-9 without N55 (1530 without Ex-9), mean, n = 5
Source text: as §2, with “Sinica. All methods were performed in accordance with the relevant guidelines and regulations by the Institute of Biomedical Sciences Animal Care and Use Committee (Academia Sinica, Taiwan) and The Ethic Committee (Academia Sinica, Taiwan).” for “Sinica.”
as §3

[3] = Ex-9 with GLP-1′ 5.4 nmol/kg, with or without N55, n = 5

In the case of exendin-4 [Ex-4], the “stimulation of GLP-1R in vitro by Ex-4” value (GLP-1R [1]) is given as “stimulated GLP-1R in vitro”, the “glucose AUC0–120” value (fasted mice; Ex-4 5.4 nmol/kg i.p. (decreased from 1500), mean, n = 5) is given as 780 mmol/l x min glucose and the “decrease in glucose level, dose dependence” value (fasted mice; Ex-4 i.p., n = 5) is given as “depended on the dose of Ex-4”. The “glucose AUCs, dose dependence” value (fasted mice; Ex-4 i.p., n = 5) was “decreased as dose of Ex-4 increased” and the glucose tolerance (fasted mice; Ex-4 i.p., n = 5) was “greatly improved the glucose tolerance”.

For “HAibEGTFTSDVSSYLEGQAAKEFIAWLVKGR-NH2 [GLP-1′, [Aib8]-GLP-1(7–36) amide, DPP4-resistant GLP-1 peptide]”, the “15-min plasma insulin level” value (mice; fasted mice, GLP-1′ without N55, 15 min after glucose loading, mouse insulin ELISA, mean, n = 5) was 1.44 µg/L, the glucose tolerance (fasted mice; GLP-1′ 0.2 nmol/kg alone i.p., n = 5) was “did not affect the glucose tolerance at all” and the “contribution to improvement of glucose excursion in presence of Ex-9” value (fasted mice; GLP-1′ 5.4 nmol/kg + Ex-9, without N55) was “non-detectable level”. The “15-min plasma glucose level” value (fasted mice; GLP-1′ 5.4 nmol/kg i.p. without N55, mean, n = 5) was 18 mmol/L, the “glucose excursion (AUC0–120)” value (fasted mice; GLP-1′ 5.4 nmol/kg i.p., n = 5) was “significantly improved” and the glucose tolerance (fasted mice; GLP-1′ 5.4 nmol/kg i.p., n = 5) was “significantly improved the glucose tolerance”. The “contribution of GLP-1′ to improvement of glucose excursion (AUC0–120 with Ex-9 minus without Ex-9)” value (fasted mice; GLP-1′ 5.4 nmol/kg without N55) was 250 mmol/l x min glucose and the “glucose AUC0–120” value (fasted mice; GLP-1′ 5.4 nmol/kg without N55, without Ex-9) was 1270 mmol/l x min glucose.

For [E22, E30] GLP-1 (7–36) amide, the “activation of receptor by point mutant of GLP-1” value (GLP-1R [2]; point mutant without Aib8) was “retained ability to activate the receptor” and the “response of point mutant of GLP-1 to N55 in vitro” value (GLP-1R [2]; point mutant without Aib8) was “not responsive to the enhancement of N55 in vitro”.

In the case of exendin-(9–39) [Ex-9], the “plasma insulin level with Ex-9” value (mice; 15 and 60 min after glucose loading, Ex-9 treated non-fasted and fasted mice) is reported as 0.36 to 0.65 µg/L, the “glucose AUC0–120” value (non-fasted mice) is reported as 2070 mmol/l x min glucose and the “effect of Ex-9 on GLP-1′ glucose lowering and N55 enhancement” value (fasted mice; [3]) is reported as “completely eliminated the glucose lowering effect of GLP-1′ and the enhancement effect of N55”. For the same substance, the “glucose AUC0–120 in all Ex-9 treated mice” value (fasted mice; [3]) was ~1520 mmol/l x min glucose and the “plasma glucose level in Ex-9 treated mice” value (fasted mice; [3]) was 22 mmol/L.

With “HAibEGTFTSDVSSYLEEQAAKEFIEWLVKGR-NH2 [[Aib8, E22, E30]-GLP-1(7–36) amide, DPP4-resistant GLP-1 mutant peptide]” the “response to N55 (cAMP)” value (GLP-1R [2]; titration of peptide with N55, triplicate assays from three independent experiments) was “failed to respond to N55”, the “potency in stimulating GLP-1R (cAMP)” value (GLP-1R [2]; titration, compared with GLP-1′, triplicate assays from three independent experiments) was “displayed comparable potency in stimulating GLP-1R” and the “glucose AUCs during IPGTT” value (fasted mice; mutant peptide i.p., n = 5) was “decreased glucose AUCs”. For the same substance, the “plasma glucose during IPGTT” value (fasted mice; mutant peptide i.p., n = 5) was “dose-dependently lowered the plasma glucose”.
